Source: US9931367B2, “Uses of cistanche tubulosa extract and isoacteoside in protecting muscle” (SINPHAR TIAN-LI PHARMACEUTICAL CO., LTD. (HANGZHOU), priority 2016, dated 2018)

What was measured:
[1] = tested on: C2C12 cells with TNF-α induced injury; test: Protection of C2C12 cells against TNF-α induced injury (survival rate, MMP, intracellular ROS); format: cell-based, mice; details: pre-treated 6 h, then 10 ng/mL TNF-α 4 days
Experimental: C2C12 cells were cultured in H-DMEM medium until 80% confluence was attained. Thereafter, the cells were separated into eleven groups, wherein seven groups thereof were provided with the Cistanche tubulosa extract (CIS) solution (dissolved in DMSO) to provide final concentrations of 0, 1, 5, 10, 50, 100, 500 μg/mL, respectively, and then pre-treatment was carried out for 6 hours; the other three groups were provided with branched chain amino acids (BCAA; served as a positive control) to provide final concentrations of 0.1, 1 or 10 μg/mL respectively, and then pre-treatment was carried out for 6 hours; thereafter, the mediums of the above ten groups (seven groups provided with CIS and three groups provided with BCAA) were replaced by differentiation mediums supplemented with 2% horse serum, and TNA-α was then added into those mediums to provide a final concentration of 10 ng/mL, and then co-treated with differentiation medium for 4 days; the last group served as a control group, which was not treated with the Cistanche tubulosa extract, BCAA, or TNA-α. Finally, the survival rates, MMPs and intracellular ROSs of the C2C12 cells in each group were measured. The control group served as a basis for calculating the relative survival rates, MMPs, and intracellular ROSs of the other groups to determine the effective concentration of Cistanche tubulosa extract for providing a protective effect against the TNF-α induced muscle cell injury. The results are shown in FIG. 3 and FIG. 4 (all the data are presented as average values±SEM, n=6, analyzed with a t-test, *p<0.05, **p<0.01, ***p<0.001).
According to the results of Example 1, echinacoside (Ech), verbascoside (VB) and isoacteoside (Iso) are the main ingredients of the Cistanche tubulosa extract. To investigate whether the echinacoside, verbascoside and isoacteoside have the effect of protecting muscles, the echinacoside, verbascoside and isoacteoside (all purchased from ChromaDex company, U.S.) were dissolved in DMSO to provide a echinacoside solution, a verbascoside solution and a isoacteoside solution. C2C12 cells were cultured in H-DMEM medium until 80% confluence was attained. Thereafter, the cells were separated into eighteen groups and treated as follows: • (1) Control group: cells were cultured in H-DMEM medium for 6 hours; thereafter the medium was replaced by a differentiation medium supplemented with 2% horse serum, and the cells were cultured for 4 days. • (2) TNF-α group: cells were cultured in H-DMEM medium for 6 hours; thereafter the medium was replaced by a differentiation medium supplemented with 2% horse serum, and TNF-α was then added into the medium (the final concentration was 10 ng/mL) to carry out a co-treatment for 4 days. • (3) TNF-α+echinacoside group (6 groups): the echinacoside solution was added into H-DMEM mediums to provide final concentrations of 1, 5, 10, 50, 100, or 500 μg/mL, respectively. The cells were pre-treated with the above mediums for 6 hours. Thereafter, the mediums were replaced by differentiation mediums supplemented with 2% horse serum, and TNF-α was then added into the mediums (the final concentration was 10 ng/mL) to carry out co-treatments for 4 days. • (4) TNF-α+verbascoside group (5 groups): the verbascoside solution was added into H-DMEM mediums to provide final concentration of 1, 5, 10, 50, or 100 μg/mL, respectively. The cells were pre-treated with the above mediums for 6 hours. Thereafter, the mediums were replaced by differentiation mediums supplemented with 2% horse serum, and TNF-α was then added into the mediums (the final concentration was 10 ng/mL) to carry out co-treatments for 4 days. • (5) TNF-α+isoacteoside group (5 groups): the isoacteoside solution was added into H-DMEM mediums to provide final concentrations of 1, 5, 10, 50, or 100 μg/mL, respectively. The cells were pre-treated with the above mediums for 6 hours. […]

C2C12 cells = test: Establishment of TNF-α induced muscle cell injury model (MMP, intracellular ROS); format: cell-based, mice; details: 4 days, relative to 0 ng/mL group
Experimental: Firstly, C2C12 cells (i.e., muscle cells of mice, purchased from ATCC) were cultured in H-DMEM medium (purchased from Sigma company) until 80% confluence was attained (i.e., the mixed cell monolayer comprises 80% of area). Thereafter, the cells were separated into four groups, and the mediums of all the groups were replaced by differentiation mediums supplemented with 2% horse serum. TNF-α (purchased from Sigma company) was then added into those mediums to provide final concentrations of 0, 2, 5, 10 ng/mL respectively. After being co-treated with the differentiation medium and TNF-α for 4 days, the mitochondrial membrane potential (MMP) and intracellular reactive oxidative stress (ROS) of the C2C12 cells were measured to serve as the index for model evaluation. Accordingly, a TNF-α induced muscle cell injury model was established. Finally, the group that was not treated with TNF-α (i.e., the concentration of TNF-α was 0 ng/mL) served as a basis for calculating the relative MMPs and intracellular ROSs of the other groups. The results are shown in FIG. 1 (all the data are presented as average values±SEM, n=6, analyzed with a t-test, *p<0.05, ***p<0.001).

C[C@@H]1O[C@@H](O[C@@H]2[C@@H](O)[C@H](OCCc3ccc(O)c(O)c3)O[C@H](COC(=O)/C=C/c3ccc(O)c(O)c3)[C@H]2O)[C@H](O)[C@H](O)[C@H]1O [isoacteoside]
decrease in the MMP induced by TNF-α ([1]; 100 μg/mL): significantly ameliorated | survival rate ([1]; 5 to 100 μg/mL): increased | intracellular ROS ([1]; 10 to 100 μg/mL): significantly decreased

C[C@@H]1O[C@@H](O[C@@H]2[C@@H](O)[C@H](OCCc3ccc(O)c(O)c3)O[C@H](CO)[C@H]2OC(=O)/C=C/c2ccc(O)c(O)c2)[C@H](O)[C@H](O)[C@H]1O [verbascoside]
protection of C2C12 cells against TNF-α induced injury (survival rate, MMP, ROS) ([1]; 1 to 100 μg/mL): could not protect

TNF-α
intracellular reactive oxidative stress (ROS) (C2C12 cells; 5 ng/mL TNF-α): slightly increased | mitochondrial membrane potential (MMP) (C2C12 cells; 5 ng/mL TNF-α): significantly decreased | intracellular reactive oxidative stress (ROS) (C2C12 cells; 10 ng/mL TNF-α): significantly increased | mitochondrial membrane potential (MMP) (C2C12 cells; 10 ng/mL TNF-α): significantly decreased

echinacoside
concentration at which the protective effect (survival rate) became significant ([1]; 5 to 500 μg/mL tested): 100 µg/mL | protective effect on MMP ([1]; 5 to 500 μg/mL): did not exhibit protective effect | protective effect on ROS ([1]; 5 to 500 μg/mL): did not exhibit protective effect | protective effect (survival rate) ([1]; lower concentration within 5 to 500 μg/mL): not significant
